Source: patent US20250312352A1, “GLP-1R MODULATING COMPOUNDS” (Gilead Sciences, Inc., priority 2021, published 2025)

molecular target: T1, GLP-1R (Homo sapiens, UniProt P43220); assay: GLP-1R activation cAMP assay (Assay 1 or Assay 2); format: cell-based; settings: cAMP increase in CHO cells stably expressing GLP-1R; compounds run on one of the two cAMP assays
T1 construct: host or cells: CHO cells
Procedure: GLP-1R ACTIVATION—cAMP Assay 1
GLP-1R activation by compounds of the present disclosure was quantified by measuring cAMP increase in CHO cells stably expressing GLP-1R (MultiSpan product #C1267-1a). The cells were harvested and plated in growth medium (DMEM/F-12 (Corning product #10-090-CV) supplemented with 10% FBS (HyClone product #SH30071-03), penicillin/streptomycin (Corning product #30-002CI) and 10 μg/ml puromycin (Gibco product #A11138-03)) at 1,000 cells/well in a 384-well plate (Greiner product #781080). The cells were then incubated overnight at 37° C., 5% CO2. The next day, the medium was removed and the cells were washed with DPBS (Corning product #21-031-CM) before adding the assay medium (HBSS, Corning product #21-023-CV) with 20 mM Hepes (Gibco product #15630-080) and 0.1% BSA (Rockland Immunochemicals product #BSA-1000)). Following the medium change, the cells were incubated for 1 hour at 37° C., 5% CO2. The tested GLP-1 compound was added to the cells in a 10-point dose response followed by a 30-minute incubation at 37° C., 5% CO2. cAMP concentration increase was then detected using Cisbio's cAMP Gs Dynamic Kit (product #62AM4PEC) according to the manufacturer's protocol. The response was plotted against the log of the agonist concentration and fitted to a sigmoidal equation to determine the EC50.
GLP-1R ACTIVATION—cAMP Assay 2
GLP-1R activation by small molecule agonists was quantified by measuring cAMP increase in CHO cells stably expressing GLP-1R (MultiSpan product #C1267-1a). 50 nL of agonists were pre-spotted in a 10-point dose response onto 384-well plate (Corning product #CL3826) using the Labcyte Echo System.

T1 sequence (P43220 24-463): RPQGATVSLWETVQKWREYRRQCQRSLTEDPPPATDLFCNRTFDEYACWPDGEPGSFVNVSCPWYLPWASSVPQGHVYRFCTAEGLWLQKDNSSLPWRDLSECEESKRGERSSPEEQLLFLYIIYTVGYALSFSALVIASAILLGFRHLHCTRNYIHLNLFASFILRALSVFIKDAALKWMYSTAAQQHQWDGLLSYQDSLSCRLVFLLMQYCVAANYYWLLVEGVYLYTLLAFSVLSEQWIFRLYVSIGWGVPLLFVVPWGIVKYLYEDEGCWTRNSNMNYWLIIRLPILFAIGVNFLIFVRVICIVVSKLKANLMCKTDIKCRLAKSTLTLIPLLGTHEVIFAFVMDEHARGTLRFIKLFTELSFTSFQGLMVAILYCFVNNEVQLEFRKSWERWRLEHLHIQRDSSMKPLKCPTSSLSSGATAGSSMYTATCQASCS

Row | SMILES | EC50 [nM]
1 | COc1cc(C(=O)NC2(C#N)CC2)ncc1COc1cccc(-c2cc(F)c(Cc3nc4c(F)cc(C(=O)O)cc4n3C[C@@H]3CCO3)cc2F)n1 [Example 42, (S)-2-(4-(6-((6-((1-cyanocyclopropyl)carbamoyl)-4-methoxypyridin-3-yl)methoxy)pyridin-2-yl)-2,5-difluorobenzyl)-4-fluoro-1-(oxetan-2-ylmethyl)-1H-benzo[d]imidazole-6-carboxylic acid] | 0.07
2 | CNC(=O)c1ccc(COc2cccc(-c3cc(F)c(Cc4nc5ccc(C(=O)O)cc5n4C[C@@H]4CCO4)cc3F)n2)cn1 [Example 43, (S)-2-(2,5-difluoro-4-(6-((6-(methylcarbamoyl)pyridin-3-yl)methoxy)pyridin-2-yl)benzyl)-1-(oxetan-2-ylmethyl)-1H-benzo[d]imidazole-6-carboxylic acid] | 0.3
3 | CN(C)C(=O)c1ccc(COc2cccc(-c3cc(F)c(Cc4nc5ccc(C(=O)O)cc5n4C[C@@H]4CCO4)cc3F)n2)cn1 [Example 44, (S)-2-(4-(6-((6-(dimethylcarbamoyl)pyridin-3-yl)methoxy)pyridin-2-yl)-2,5-difluorobenzyl)-1-(oxetan-2-ylmethyl)-1H-benzo[d]imidazole-6-carboxylic acid] | 75.3
4 | CNC(=O)c1cc(Cl)c(COc2cccc(-c3cc(F)c(Cc4nc5ccc(C(=O)O)cc5n4C[C@@H]4CCO4)cc3F)n2)cn1 [Example 46, (S)-2-(4-(6-((4-chloro-6-(methylcarbamoyl)pyridin-3-yl)methoxy)pyridin-2-yl)-2,5-difluorobenzyl)-1-(oxetan-2-ylmethyl)-1H-benzo[d]imidazole-6-carboxylic acid] | 0.14
5 | O=C(O)c1ccc2nc(Cc3cc(F)c(-c4cccc(OCc5ncc(Cl)s5)n4)cc3F)n(C[C@@H]3CCO3)c2c1 [Example 47, (S)-2-(4-(6-((5-chlorothiazol-2-yl)methoxy)pyridin-2-yl)-2,5-difluorobenzyl)-1-(oxetan-2-ylmethyl)-1H-benzo[d]imidazole-6-carboxylic acid] | 0.09
6 | Cn1c(COc2cccc(-c3cc(F)c(Cc4nc5ccc(C(=O)O)cc5n4C[C@@H]4CCO4)cc3F)n2)nc2ccccc21 [Example 48, (S)-2-(2,5-difluoro-4-(6-((1-methyl-1H-benzo[d]imidazol-2-yl)methoxy)pyridin-2-yl)benzyl)-1-(oxetan-2-ylmethyl)-1H-benzo[d]imidazole-6-carboxylic acid] | 2.33
7 | O=C(O)c1ccc2nc(Cc3cc(F)c(-c4cccc(OCc5nnc(Cl)s5)n4)cc3F)n(C[C@@H]3CCO3)c2c1 [Example 49, (S)-2-(4-(6-((5-chloro-1,3,4-thiadiazol-2-yl)methoxy)pyridin-2-yl)-2,5-difluorobenzyl)-1-(oxetan-2-ylmethyl)-1H-benzo[d]imidazole-6-carboxylic acid] | 0.65
8 | O=C(O)c1ccc2nc(Cc3cc(F)c(-c4cccc(OCc5csc(Cl)n5)n4)cc3F)n(C[C@@H]3CCO3)c2c1 [Example 50, (S)-2-(4-(6-((2-chlorothiazol-4-yl)methoxy)pyridin-2-yl)-2,5-difluorobenzyl)-1-(oxetan-2-ylmethyl)-1H-benzo[d]imidazole-6-carboxylic acid] | 0.67
9 | O=C(O)c1ccc2nc(Cc3cc(F)c(-c4cccc(OCc5cc(F)c(Br)s5)n4)cc3F)n(C[C@@H]3CCO3)c2c1 [Example 51, (S)-2-(4-(6-((5-bromo-4-fluorothiophen-2-yl)methoxy)pyridin-2-yl)-2,5-difluorobenzyl)-1-(oxetan-2-ylmethyl)-1H-benzo[d]imidazole-6-carboxylic acid] | 0.21
10 | N#Cc1cc(F)c(COc2cccc(-c3cc(F)c(Cc4nc5ccc(C(=O)O)cc5n4C[C@@H]4CCO4)cc3F)n2)s1 [Example 52, (S)-2-(4-(6-((5-cyano-3-fluorothiophen-2-yl)methoxy)pyridin-2-yl)-2,5-difluorobenzyl)-1-(oxetan-2-ylmethyl)-1H-benzo[d]imidazole-6-carboxylic acid] | 0.13
11 | O=C(O)c1ccc2nc(Cc3cc(F)c(-c4cccc(OCc5nc(C(F)(F)F)cs5)n4)cc3F)n(C[C@@H]3CCO3)c2c1 [Example 53, (S)-2-(2,5-difluoro-4-(6-((4-(trifluoromethyl)thiazol-2-yl)methoxy)pyridin-2-yl)benzyl)-1-(oxetan-2-ylmethyl)-1H-benzo[d]imidazole-6-carboxylic acid] | 0.38
12 | O=C(O)c1ccc2nc(Cc3cc(F)c(-c4cccc(OCc5cc(C(F)(F)F)cs5)n4)cc3F)n(C[C@@H]3CCO3)c2c1 [Example 55, (S)-2-(2,5-difluoro-4-(6-((4-(trifluoromethyl)thiophen-2-yl)methoxy)pyridin-2-yl)benzyl)-1-(oxetan-2-ylmethyl)-1H-benzo[d]imidazole-6-carboxylic acid] | 0.44
13 | O=C(O)c1ccc2nc(Cc3cc(F)c(-c4cccc(OCc5ncc(OCC(F)F)s5)n4)cc3F)n(C[C@@H]3CCO3)c2c1 [Example 56, (S)-2-(4-(6-((5-(2,2-difluoroethoxy)thiazol-2-yl)methoxy)pyridin-2-yl)-2,5-difluorobenzyl)-1-(oxetan-2-ylmethyl)-1H-benzo[d]imidazole-6-carboxylic acid] | 7.19
14 | O=C(O)c1ccc2nc(Cc3cc(F)c(-c4cccc(OCc5ncc(OCC(F)(F)F)s5)n4)cc3F)n(C[C@@H]3CCO3)c2c1 [Example 57, (S)-2-(2,5-difluoro-4-(6-((5-(2,2,2-trifluoroethoxy)thiazol-2-yl)methoxy)pyridin-2-yl)benzyl)-1-(oxetan-2-ylmethyl)-1H-benzo[d]imidazole-6-carboxylic acid] | 0.73
15 | O=C(O)c1ccc2nc(Cc3cc(F)c(-c4cccc(OCc5ncc(C(F)F)s5)n4)cc3F)n(C[C@@H]3CCO3)c2c1 [Example 58, (S)-2-(4-(6-((5-(difluoromethyl)thiazol-2-yl)methoxy)pyridin-2-yl)-2,5-difluorobenzyl)-1-(oxetan-2-ylmethyl)-1H-benzo[d]imidazole-6-carboxylic acid] | 0.14
16 | O=C(O)c1ccc2nc(Cc3cc(F)c(-c4cccc(OCc5nncs5)n4)cc3F)n(C[C@@H]3CCO3)c2c1 [Example 59, (S)-2-(4-(6-((1,3,4-thiadiazol-2-yl)methoxy)pyridin-2-yl)-2,5-difluorobenzyl)-1-(oxetan-2-ylmethyl)-1H-benzo[d]imidazole-6-carboxylic acid] | 2.38
17 | O=C(O)c1ccc2nc(Cc3cc(F)c(-c4cccc(OCc5cc(C(F)(F)F)no5)n4)cc3F)n(C[C@@H]3CCO3)c2c1 [Example 60, (S)-2-(2,5-difluoro-4-(6-((3-(trifluoromethyl)isoxazol-5-yl)methoxy)pyridin-2-yl)benzyl)-1-(oxetan-2-ylmethyl)-1H-benzo[d]imidazole-6-carboxylic acid] | 1.44
18 | O=C(O)c1ccc2nc(Cc3cc(F)c(-c4cccc(OCc5ccc(C(F)(F)F)o5)n4)cc3F)n(C[C@@H]3CCO3)c2c1 [Example 61, (S)-2-(2,5-difluoro-4-(6-((5-(trifluoromethyl)furan-2-yl)methoxy)pyridin-2-yl)benzyl)-1-(oxetan-2-ylmethyl)-1H-benzo[d]imidazole-6-carboxylic acid] | 0.96
19 | O=C(O)c1ccc2nc(Cc3cc(F)c(-c4cccc(OCc5ccn(-c6ccc(F)cc6)n5)n4)cc3F)n(C[C@@H]3CCO3)c2c1 [Example 62, (S)-2-(2,5-difluoro-4-(6-((1-(4-fluorophenyl)-1H-pyrazol-3-yl)methoxy)pyridin-2-yl)benzyl)-1-(oxetan-2-ylmethyl)-1H-benzo[d]imidazole-6-carboxylic acid] | 1.98
